Results as given in US11655239B2 (SHANGHAI INSTITUTE OF MATERIAL MEDICA, CHINESE ACADEMY OF …, priority 2019, dated 2023).

Tests used:
[1] = test system: lung fibroblast cell line MRC-5; test: Cytotoxic activity test (MTS), MRC-5; type: cell-based, human; details: 10 μM
Description: Experimental objective: The cytotoxic activity of compound S15 on bronchial epithelial cell line Beas-2B and lung fibroblast cell line MRC-5 was tested.
1) The human bronchial epithelial cell line Beas-2B and the human embryonic lung fibroblast cell line MRC-5 were collected, and inoculated at a certain density (about 5000-10000 cells) on a 96-well plate (the edge wells were filled with sterile water or PBS). A control was set on each plate (100 μL of culture medium was added);
2) The plate was incubated overnight at 37° C., 5% CO2. The plate was turned upside down and observed under the microscope.
3) The solutions of different concentrations of the compounds to be tested were added to each well, and a control well (culture medium and MTS solution with cells but no drug) and a blank well (without cells, medium and MTS solution) were set, 3 to 5 repetition wells were set for each group. Incubation was performed at 37° C. for 48-72 hours.
4) 10 μL/well of MTS/PMS (20:1, Promega Corp) solution was added to each well containing 100 μL of culture medium, and then the plate was gently shaken. The plate was incubated at 37° C. for 2 to 4 hours.
5) M5 microplate reader (Molecular Device, USA) was used to measure the absorbance of the solution at 490 nm. […]

[2] = test system: mouse model of BLM-induced lung injury; test: Serum ALP and LDH levels; type: in vivo; details: mice
From the text: Alkaline phosphatase (ALP) level and lactate dehydrogenase (LDH) level. An automatic blood indicator analyzer and related kits (alkaline phosphatase assay kit and lactate dehydrogenase assay kit) were used to measure related indicators.
Serum lactate dehydrogenase (LDH) and alkaline phosphatase (ALP) are important markers of inflammatory response of lung injury.

[3] = test system: pulmonary fibrosis induced by bleomycin in mice; test: Hydroxyproline level of the whole lung; type: in vivo, mouse; details: Effect example 5; compared with the BLM control group
Description: The change in hydroxyproline was determined by using a hydroxyproline detection kit, the steps are as follows:
1) The wet weights of the lung tissues in different groups were accurately weighed, and the lung tissues were placed in a 20 ml centrifuge tube after weighing.
2) 1 ml of hydrolysate was added to a 20 ml centrifuge tube and the tube was placed in boiling water at a constant temperature for 20 minutes.
3) The pH of the sample was adjusted to 6.0-8.0 with the reagents provided in the kit.
4) The reagents in the centrifuge tube were made up to 10 ml with distilled water, and mixed thoroughly.
5) 5 ml of hydrolysate was taken from the centrifuge tube, an appropriate amount of activated carbon was added, mixed thoroughly, centrifuged at 3500 rpm for 10 minutes in a centrifuge, and 1 ml of upper supernatant layer was taken for subsequent monitoring.
6) Reagents 1, 2, and 3 were added in order, mixed thoroughly, and then placed in a water bath at 60° C. for 15 minutes, then placed at room temperature for 5 minutes, and centrifuged in a centrifuge at 3500 rpm for 10 minutes. […] Distilled water was used as the zero setting and the absorbance value of each sample at 550 nm wavelength was determined.
7) A standard curve was drew based on the absorbance of the standard, and used as a basis to determine the hydroxyproline content of each sample. […]

MRC-5 induced by TGF-β1 = test: Activation of MRC-5 induced by TGF-β1; type: cell-based, human; details: levels of Fibronectin, α-SMA, Collagen1-α1
Description: 1) Preparation of cell protein samples: the cell culture liquid was discarded, wash was performed once with PBS, and samples were collected by adding 1×SDS-Loading. after the samples were collected, they were placed in a metal bath at 100° C., and the samples were boiled for 10 minutes, and then the samples were stored at 4° C. for waiting for subsequent test.
2) Gel preparation and sample loading: according to the molecular weight of the detected protein, different concentrations of separation gel were selected. after filling the 1× electrophoresis buffer, an equal volume of protein sample 4 μl and protein marker were added on the far left to right in sequence.
When the sample was in the concentrated gel, the voltage was set to 80 V; when the sample was electrophoresed to the separation gel, the voltage was increased to 120 V until the bromophenol blue was electrophoresed to reach the bottom of the gel, and the electrophoresis ended. […]
8) Secondary antibodies: the film with the primary antibodies was rewarmed and incubated for about half an hour, and then the primary antibodies were recovered and the film was washed quickly with TBST solution 3 times, 10 minutes each time. […] The dilution ratio of the secondary antibody dedicated for DDR2 was 1:5000; The dilution ratio for the rest of the secondary antibodies were 1:8000, ready for use. […]

SMILES: O=C(Nc1cccc(C(F)(F)F)c1)c1ccc(C2CC2)c(-c2ccc3nc(Nc4cnn(C5CC5)c4)ncc3c2)c1 [Compound S15, 4-cyclopropyl-3-(2-((1-cyclopropyl-1H-pyrazol-4-yl)amino)quinazolin-6-yl)-N-(3-(trifluoromethyl)phenyl)benzamide]
- cytotoxic activity on MRC-5 [1]: almost no toxicity
- ALP serum level [2]: inhibit the level of ALP more effectively than nintedanib
- LDH serum level ([2]; 90 mg/kg high dose group): effectively inhibit serum LDH level
- hydroxyproline level of the whole lung [3]: significantly reduce the level of hydroxyproline
- activation of MRC-5 induced by TGF-β1 (MRC-5 induced by TGF-β1): inhibit the activation of MRC-5 induced by TGF-β1 in a dose-dependent manner
